In ChEMBL document CHEMBL1201862, “PubChem BioAssay data set” (2004):
Activity calls are given as the source filed them.

Key:
[1] = target: T1, Heat shock 70 kDa protein 1A (Homo sapiens, UniProt P0DMV8); experiment: Hsp70 inhibitors, biochemical, TR-FRET (AID 786)
[2] = Luminescence Cell-Based Dose Confirmation HTS to Identify Activators of 5'UTR Stem-Loop Driven Alpha-Synuclein mRNA Translation in H4 Neuroglioblastoma Cells. [Related pubchem assays: 1829 (Project Summary), 1814 (Primary HTS)]; format: functional
Large T antigen = Large T antigen (Simian virus 40, UniProt P03070); format: functional, Betapolyomavirus macacae;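 also: Confirmatory-stage PubChem screen for compounds that inhibit SV40 T antigen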
Sequence of Large T antigen (P03070 whole entry): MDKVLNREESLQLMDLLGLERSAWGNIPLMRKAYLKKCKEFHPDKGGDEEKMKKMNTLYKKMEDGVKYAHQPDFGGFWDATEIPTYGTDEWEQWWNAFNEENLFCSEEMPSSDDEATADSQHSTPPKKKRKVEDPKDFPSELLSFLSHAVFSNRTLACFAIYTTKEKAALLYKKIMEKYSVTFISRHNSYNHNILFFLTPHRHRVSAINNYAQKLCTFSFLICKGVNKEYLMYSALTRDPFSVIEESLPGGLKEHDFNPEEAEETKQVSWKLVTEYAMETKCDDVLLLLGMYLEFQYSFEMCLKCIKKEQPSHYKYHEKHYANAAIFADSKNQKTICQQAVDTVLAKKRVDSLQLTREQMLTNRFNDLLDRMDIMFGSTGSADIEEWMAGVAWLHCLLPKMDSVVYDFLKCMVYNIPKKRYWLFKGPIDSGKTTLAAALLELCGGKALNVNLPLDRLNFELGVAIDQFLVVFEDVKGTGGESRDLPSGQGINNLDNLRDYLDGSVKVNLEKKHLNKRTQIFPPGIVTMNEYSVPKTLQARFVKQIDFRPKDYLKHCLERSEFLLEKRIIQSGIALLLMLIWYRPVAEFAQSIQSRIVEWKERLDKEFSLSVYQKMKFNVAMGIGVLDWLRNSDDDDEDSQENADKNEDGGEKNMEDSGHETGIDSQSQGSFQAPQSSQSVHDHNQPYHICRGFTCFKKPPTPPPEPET

[3] = Luminescence Cell-Based Dose Response HTS to Identify Activators of Luciferase Translation or Activity in H4 […] Cells. [Related pubchem assays: 1829 (Project Summary), 1814 (Primary HTS)]; format: functional
[4] = target: Eukaryotic translation initiation factor 4E (Mus musculus, UniProt P63073); experiment: eIF4E–eIF4G protein interaction inhibitors, dose response, biochemical, TR-FRET (AID 855); format: functional;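 also: potency for disrupting eIF4E binding to eIF4GI seen as loss of FRET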
Sequence of Eukaryotic translation initiation factor 4E (P63073 whole entry): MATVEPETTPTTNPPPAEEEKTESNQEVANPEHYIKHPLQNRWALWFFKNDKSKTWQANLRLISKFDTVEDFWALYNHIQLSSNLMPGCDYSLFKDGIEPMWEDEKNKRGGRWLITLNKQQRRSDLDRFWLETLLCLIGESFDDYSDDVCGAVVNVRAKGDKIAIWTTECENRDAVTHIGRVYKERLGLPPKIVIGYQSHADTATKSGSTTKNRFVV

[5] = target: T1, Heat shock 70 kDa protein 1A; experiment: Hsp70 inhibitors, probe displacement, primary screen, biochemical, fluorescence polarization (AID 583)
[6] = target: Induced myeloid leukemia cell differentiation protein Mcl-1 (Homo sapiens, UniProt Q07820); format: functional
Sequence of Induced myeloid leukemia cell differentiation protein Mcl-1 (Q07820 whole entry): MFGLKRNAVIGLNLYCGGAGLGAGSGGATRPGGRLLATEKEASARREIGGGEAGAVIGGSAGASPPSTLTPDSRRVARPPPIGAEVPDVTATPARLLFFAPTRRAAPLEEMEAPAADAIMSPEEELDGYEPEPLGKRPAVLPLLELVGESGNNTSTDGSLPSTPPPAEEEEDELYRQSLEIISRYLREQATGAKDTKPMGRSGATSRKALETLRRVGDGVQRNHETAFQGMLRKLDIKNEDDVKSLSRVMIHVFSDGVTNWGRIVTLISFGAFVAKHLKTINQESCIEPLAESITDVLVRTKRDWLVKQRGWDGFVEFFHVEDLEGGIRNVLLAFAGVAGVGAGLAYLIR

[7] = target: T2, Tyrosine-protein phosphatase non-receptor type 7 (Homo sapiens, UniProt P35236); experiment: redox-dependent HePTP inhibition, mechanism study, biochemical, fluorescence (AID 2068); format: functional
T2 sequence (P35236 whole entry): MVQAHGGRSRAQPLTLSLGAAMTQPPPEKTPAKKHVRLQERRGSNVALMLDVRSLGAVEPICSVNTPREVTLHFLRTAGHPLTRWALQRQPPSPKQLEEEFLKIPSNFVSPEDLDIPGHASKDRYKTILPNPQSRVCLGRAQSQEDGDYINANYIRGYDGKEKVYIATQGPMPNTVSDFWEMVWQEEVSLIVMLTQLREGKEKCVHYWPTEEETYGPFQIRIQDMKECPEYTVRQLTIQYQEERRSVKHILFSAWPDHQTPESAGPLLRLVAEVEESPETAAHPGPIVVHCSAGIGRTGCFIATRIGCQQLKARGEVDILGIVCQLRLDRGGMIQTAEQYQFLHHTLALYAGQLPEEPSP

[8] = target: Glutathione-S-transferase (Schistosoma japonicum, UniProt Q26513); experiment: biotin-GST/anti-GST TR-FRET signal inhibitors, dose response, artefact control for Vif-APOBEC3G degradation inhibitor project, biochemical (AID 1117362); format: functional
Sequence of Glutathione-S-transferase (Q26513 whole entry): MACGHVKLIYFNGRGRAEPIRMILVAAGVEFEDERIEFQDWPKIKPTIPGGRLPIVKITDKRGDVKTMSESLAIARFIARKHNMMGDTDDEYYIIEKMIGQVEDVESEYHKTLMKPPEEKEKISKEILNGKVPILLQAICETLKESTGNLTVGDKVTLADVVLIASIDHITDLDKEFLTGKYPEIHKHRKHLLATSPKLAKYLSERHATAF

H4 = experiment: Luminescence Cell-Based Dose Response HTS to Identify Activators of 5'UTR Stem-Loop Driven Prion Protein mRNA Translation in H4 Neuroglioblastoma Cells. [Related pubchem assays: 1829 (Project Summary), 1814 (Primary HTS)]; format: functional; settings: Homo sapiens
Troponin, cardiac muscle = Troponin, cardiac muscle (Homo sapiens, UniProt P19429+P45379+P63316); experiment: inhibitors of cardiac thin filament calcium sensitivity, dose response, biochemical, fluorescence, cardiac regulated thin filaments, triplicate IC50 (AID 504742); format: protein-complex assay
Beta-galactosidase = Beta-galactosidase (Escherichia coli, UniProt Q8VNN2); experiment: beta-galactosidase enzyme inhibitors and activators, dose response, artefact control for CCR6 antagonist project, biochemical, E. coli enzyme, set 3 (AID 504712); format: functional
Sequence of Beta-galactosidase (Q8VNN2 whole entry): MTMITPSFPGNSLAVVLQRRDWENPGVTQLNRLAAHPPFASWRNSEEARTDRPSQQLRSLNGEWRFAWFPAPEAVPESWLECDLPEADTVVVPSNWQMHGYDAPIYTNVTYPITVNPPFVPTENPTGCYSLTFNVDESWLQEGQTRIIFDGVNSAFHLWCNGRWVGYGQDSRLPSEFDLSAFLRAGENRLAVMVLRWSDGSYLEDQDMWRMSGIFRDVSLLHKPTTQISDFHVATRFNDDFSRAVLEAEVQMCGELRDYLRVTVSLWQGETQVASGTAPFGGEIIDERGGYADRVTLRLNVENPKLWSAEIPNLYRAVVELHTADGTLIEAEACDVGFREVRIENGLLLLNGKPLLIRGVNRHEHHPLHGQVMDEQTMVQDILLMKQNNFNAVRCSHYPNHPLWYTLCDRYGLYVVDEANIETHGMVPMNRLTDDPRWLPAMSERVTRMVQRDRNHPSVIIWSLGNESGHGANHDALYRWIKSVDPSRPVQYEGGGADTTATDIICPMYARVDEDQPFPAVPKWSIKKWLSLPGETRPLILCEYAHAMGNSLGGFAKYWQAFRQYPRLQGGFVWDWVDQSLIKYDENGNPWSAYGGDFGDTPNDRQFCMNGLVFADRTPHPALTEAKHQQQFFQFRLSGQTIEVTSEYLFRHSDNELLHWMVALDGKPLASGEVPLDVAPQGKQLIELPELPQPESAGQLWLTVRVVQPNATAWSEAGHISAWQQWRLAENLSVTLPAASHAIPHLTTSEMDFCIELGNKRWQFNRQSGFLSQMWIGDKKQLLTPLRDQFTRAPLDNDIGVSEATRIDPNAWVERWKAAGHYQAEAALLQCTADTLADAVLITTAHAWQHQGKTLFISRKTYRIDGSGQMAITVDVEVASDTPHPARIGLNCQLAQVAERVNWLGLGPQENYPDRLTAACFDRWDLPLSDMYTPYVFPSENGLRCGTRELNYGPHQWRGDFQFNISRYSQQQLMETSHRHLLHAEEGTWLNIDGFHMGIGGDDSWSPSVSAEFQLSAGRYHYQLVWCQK

[9] = Luminescence Cell-Based Dose Retest to Confirm Inhibitors of Cancer Stem Cells. [Related pubchem assays (depositor defined):AID2717, AID2721]; format: functional; settings: Homo sapiens
[10] = microbe, parasite or virus in culture; format: functional; settings: Mycobacterium tuberculosis
Coagulation factor XII = target: T3, Coagulation factor XII (Homo sapiens, UniProt P00748); format: functional;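 also: activated factor XIIa alpha cleaving a fluorogenic AMC peptide substrate; inhibitor potency from loss of enzyme activity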
T3 sequence (P00748 whole entry): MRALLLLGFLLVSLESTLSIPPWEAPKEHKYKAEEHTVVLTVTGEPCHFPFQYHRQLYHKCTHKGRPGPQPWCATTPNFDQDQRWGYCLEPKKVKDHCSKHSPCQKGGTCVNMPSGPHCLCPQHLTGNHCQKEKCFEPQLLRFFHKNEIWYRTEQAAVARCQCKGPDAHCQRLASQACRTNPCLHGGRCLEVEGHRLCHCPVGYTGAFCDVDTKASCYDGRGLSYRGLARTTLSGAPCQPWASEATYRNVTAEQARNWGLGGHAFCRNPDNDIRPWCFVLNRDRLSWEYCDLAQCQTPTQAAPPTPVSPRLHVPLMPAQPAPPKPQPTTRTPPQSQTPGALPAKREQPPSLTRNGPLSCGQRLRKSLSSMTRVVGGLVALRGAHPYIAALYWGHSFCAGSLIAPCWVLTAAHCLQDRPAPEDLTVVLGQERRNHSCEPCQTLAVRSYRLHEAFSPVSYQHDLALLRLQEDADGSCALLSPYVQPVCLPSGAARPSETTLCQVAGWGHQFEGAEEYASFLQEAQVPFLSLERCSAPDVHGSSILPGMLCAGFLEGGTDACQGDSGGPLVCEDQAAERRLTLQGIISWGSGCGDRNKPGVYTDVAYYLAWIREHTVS

[11] = target: Dual specificity protein phosphatase 3 (Homo sapiens, UniProt P51452); experiment: SAR VHR1 Fluorescent Assay for In Vitro dose response studies Set 2. [Related pubchem assays (depositor defined):AID1654, AID1661, AID1878]; format: functional
Sequence of Dual specificity protein phosphatase 3 (P51452 whole entry): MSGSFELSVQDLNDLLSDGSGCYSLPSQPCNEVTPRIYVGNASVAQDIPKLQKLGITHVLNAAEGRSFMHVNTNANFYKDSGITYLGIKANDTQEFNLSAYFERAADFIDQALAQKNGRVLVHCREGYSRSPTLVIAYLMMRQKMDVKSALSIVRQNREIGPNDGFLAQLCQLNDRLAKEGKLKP

[12] = target: T2, Tyrosine-protein phosphatase non-receptor type 7; experiment: SAR analysis of chemical inhibitors of HePTP using a Fluorescent assay - Set 2. [Related pubchem assays (depositor defined):AID1059, AID1077, AID1661, AID2085, AID521]; format: functional
Caspase-6 = target: T4, Caspase-6 (Homo sapiens, UniProt P55212); experiment: human caspase-6 inhibitors, dose response, biochemical, VEID-R110 fluorescence, cherry-pick (AID 720632)
T4 sequence (P55212 whole entry): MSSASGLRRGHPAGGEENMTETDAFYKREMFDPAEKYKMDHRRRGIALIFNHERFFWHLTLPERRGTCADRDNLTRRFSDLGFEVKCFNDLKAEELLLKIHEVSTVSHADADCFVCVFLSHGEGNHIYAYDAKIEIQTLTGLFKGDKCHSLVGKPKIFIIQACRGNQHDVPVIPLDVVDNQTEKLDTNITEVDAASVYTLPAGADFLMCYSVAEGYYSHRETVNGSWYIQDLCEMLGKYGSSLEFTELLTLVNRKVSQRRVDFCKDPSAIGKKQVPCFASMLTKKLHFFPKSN

[13] = target: T5, Long-chain-fatty-acid--AMP ligase FadD28 (Mycobacterium tuberculosis, UniProt P9WQ59); experiment: Fluorescence polarization aasay to screen for inhibitors that compete for the binding of FadD28 to a bisubstrate Measured in Biochemical System Using Plate Reader - 2147-01_Inhibitor_Dose_CherryPick_Activity.; format: functional, Mycobacterium tuberculosis H37Rv
T5 sequence (P9WQ59 whole entry): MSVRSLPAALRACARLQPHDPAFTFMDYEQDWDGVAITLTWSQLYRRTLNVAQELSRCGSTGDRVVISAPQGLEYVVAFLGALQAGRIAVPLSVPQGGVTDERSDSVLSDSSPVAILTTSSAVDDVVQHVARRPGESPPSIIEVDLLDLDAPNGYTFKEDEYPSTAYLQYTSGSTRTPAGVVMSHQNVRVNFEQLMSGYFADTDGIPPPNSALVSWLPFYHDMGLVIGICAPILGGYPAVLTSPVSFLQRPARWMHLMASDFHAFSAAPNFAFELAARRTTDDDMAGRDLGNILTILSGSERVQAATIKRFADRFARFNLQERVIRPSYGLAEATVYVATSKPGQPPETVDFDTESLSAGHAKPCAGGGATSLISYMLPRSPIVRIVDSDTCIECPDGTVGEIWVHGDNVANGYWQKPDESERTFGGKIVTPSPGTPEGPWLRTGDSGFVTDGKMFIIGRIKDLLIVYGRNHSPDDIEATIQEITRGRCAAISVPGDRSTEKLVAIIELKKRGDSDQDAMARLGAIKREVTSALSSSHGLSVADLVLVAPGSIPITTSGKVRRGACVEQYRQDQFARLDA

[14] = target: T6, RNA-binding protein pos-1 (Caenorhabditis elegans, UniProt G5EF15); experiment: inhibitors of POS-1/mex-3 RNA binding, dose response, biochemical, fluorescence polarization (AID 1964);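 also: purified POS-1 fused to maltose binding protein made in E. coli; potency of compounds blocking POS-1 binding to fluorescent RNA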
T6 sequence (G5EF15 whole entry): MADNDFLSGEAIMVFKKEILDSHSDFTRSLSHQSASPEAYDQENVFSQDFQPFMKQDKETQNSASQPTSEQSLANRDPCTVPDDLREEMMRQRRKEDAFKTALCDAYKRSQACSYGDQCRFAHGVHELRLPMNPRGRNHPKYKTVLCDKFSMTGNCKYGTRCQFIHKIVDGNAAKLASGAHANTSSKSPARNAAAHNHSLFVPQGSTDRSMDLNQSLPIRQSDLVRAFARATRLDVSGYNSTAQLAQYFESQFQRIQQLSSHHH

[15] = AlphaScreen signal interference compounds, dose response, artefact control for ARNT-TACC3 interaction inhibitor project, biochemical, luminescence, cherry-pick (AID 651705); format: functional;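 also: AlphaScreen bead proximity signal that flags compounds interfering with the detection technology; potency reflects signal decrease which marks the compound as an assay artifact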
HeLa = experiment: HeLa cell cytotoxicity, dose response, cytotoxicity control, 24 h, cherry-picked samples (AID 504726); format: functional, cell-based; settings: Homo sapiens;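 also: potency for cytotoxicity as loss of luminescence signal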
Keap1/Nrf2 = Keap1/Nrf2 (Homo sapiens, UniProt Q14145); experiment: Keap1-Nrf2 protein-protein interaction inhibitors, dose response, biochemical, fluorescence polarization, cherry-picked samples (AID 588683)
ORF 73 = ORF 73 (Human herpesvirus 8, UniProt O40947); experiment: inhibitors of C-LANA binding to LBS DNA, dose response, biochemical, fluorescence polarization, cherry-picked samples (AID 504725); design: species or system Human gammaherpesvirus 8;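 also: fluorescence polarization of a labeled DNA duplex reporting LANA DNA binding; potency is for inhibitors that block LANA binding to the DNA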
Sequence of ORF 73 (O40947 whole entry): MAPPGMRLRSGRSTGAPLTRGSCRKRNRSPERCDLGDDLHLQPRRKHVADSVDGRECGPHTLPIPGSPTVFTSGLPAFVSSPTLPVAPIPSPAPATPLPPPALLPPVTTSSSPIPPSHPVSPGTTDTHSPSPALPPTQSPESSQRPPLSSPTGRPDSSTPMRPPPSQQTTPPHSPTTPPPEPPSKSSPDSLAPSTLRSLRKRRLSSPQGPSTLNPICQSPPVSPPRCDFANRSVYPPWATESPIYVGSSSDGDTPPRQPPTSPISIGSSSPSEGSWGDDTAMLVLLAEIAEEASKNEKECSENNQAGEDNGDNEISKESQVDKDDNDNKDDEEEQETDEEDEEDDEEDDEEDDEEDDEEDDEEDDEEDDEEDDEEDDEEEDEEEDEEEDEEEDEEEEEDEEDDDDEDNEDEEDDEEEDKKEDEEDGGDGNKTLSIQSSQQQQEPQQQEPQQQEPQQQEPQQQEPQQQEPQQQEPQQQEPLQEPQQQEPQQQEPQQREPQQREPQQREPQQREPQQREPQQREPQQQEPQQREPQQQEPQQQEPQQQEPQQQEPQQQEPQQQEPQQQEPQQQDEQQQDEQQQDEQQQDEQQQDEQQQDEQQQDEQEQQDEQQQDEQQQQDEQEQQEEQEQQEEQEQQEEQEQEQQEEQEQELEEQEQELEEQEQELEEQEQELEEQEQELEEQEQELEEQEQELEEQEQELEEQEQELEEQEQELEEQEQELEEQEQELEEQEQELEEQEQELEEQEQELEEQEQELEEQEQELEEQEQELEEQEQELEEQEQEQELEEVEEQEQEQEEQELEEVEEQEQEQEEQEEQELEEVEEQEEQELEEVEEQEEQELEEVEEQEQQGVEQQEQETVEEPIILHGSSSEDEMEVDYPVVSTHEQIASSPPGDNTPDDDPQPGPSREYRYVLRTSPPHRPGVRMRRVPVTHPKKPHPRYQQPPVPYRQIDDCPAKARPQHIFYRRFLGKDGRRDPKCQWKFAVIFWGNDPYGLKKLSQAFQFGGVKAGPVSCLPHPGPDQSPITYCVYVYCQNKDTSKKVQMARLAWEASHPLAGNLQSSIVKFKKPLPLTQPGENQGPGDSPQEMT

[16] = target: T7, Zinc finger protein mex-5 (Caenorhabditis elegans, UniProt Q9XUB2); experiment: MEX-5/TCR-2 RNA interaction inhibitors, dose response, biochemical, C. elegans, fluorescence polarization (AID 1960)
T7 sequence (Q9XUB2 whole entry): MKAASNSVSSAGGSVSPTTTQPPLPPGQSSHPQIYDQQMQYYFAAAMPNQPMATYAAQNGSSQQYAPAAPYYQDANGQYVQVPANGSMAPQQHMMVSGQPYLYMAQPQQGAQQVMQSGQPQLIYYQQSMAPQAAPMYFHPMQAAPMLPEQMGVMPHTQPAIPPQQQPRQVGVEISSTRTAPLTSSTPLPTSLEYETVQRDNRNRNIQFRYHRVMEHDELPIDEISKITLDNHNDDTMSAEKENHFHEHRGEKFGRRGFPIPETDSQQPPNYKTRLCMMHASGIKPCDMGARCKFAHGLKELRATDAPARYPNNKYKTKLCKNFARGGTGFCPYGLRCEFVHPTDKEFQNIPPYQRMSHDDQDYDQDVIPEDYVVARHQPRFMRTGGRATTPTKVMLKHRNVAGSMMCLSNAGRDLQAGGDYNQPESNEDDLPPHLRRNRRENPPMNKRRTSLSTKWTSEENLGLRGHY

[17] = target: Polyadenylate-binding protein 1 (Homo sapiens, UniProt P11940); experiment: PABP inhibition in translation initiation, SAR follow-up (AID 435018); format: functional
[18] = target: Eukaryotic translation initiation factor 4H (Homo sapiens, UniProt Q15056); experiment: eIF4H inhibition in translation initiation, SAR follow-up (AID 435011); format: functional
Trypanosoma cruzi = experiment: growth inhibition of intracellular Trypanosoma cruzi, dose response, cell-based, plate reader, dry powder, set 3 (AID 493197); format: functional
[19] = cytotoxicity in NIH/3T3 mouse fibroblasts, dose response, cytotoxicity control, cell-based, mouse embryonic fibroblasts, dry powder, set 2 (AID 493247); format: functional; settings: Fibroblast
[20] = target: Potassium voltage-gated channel subfamily KQT member 2 (Rattus norvegicus, UniProt O88943); experiment: retigabine-insensitive KCNQ2 potentiators, concentration-response, dose response, cell-based, retigabine-insensitive compounds (AID 2654); format: functional

T1 sequence (P0DMV8 whole entry): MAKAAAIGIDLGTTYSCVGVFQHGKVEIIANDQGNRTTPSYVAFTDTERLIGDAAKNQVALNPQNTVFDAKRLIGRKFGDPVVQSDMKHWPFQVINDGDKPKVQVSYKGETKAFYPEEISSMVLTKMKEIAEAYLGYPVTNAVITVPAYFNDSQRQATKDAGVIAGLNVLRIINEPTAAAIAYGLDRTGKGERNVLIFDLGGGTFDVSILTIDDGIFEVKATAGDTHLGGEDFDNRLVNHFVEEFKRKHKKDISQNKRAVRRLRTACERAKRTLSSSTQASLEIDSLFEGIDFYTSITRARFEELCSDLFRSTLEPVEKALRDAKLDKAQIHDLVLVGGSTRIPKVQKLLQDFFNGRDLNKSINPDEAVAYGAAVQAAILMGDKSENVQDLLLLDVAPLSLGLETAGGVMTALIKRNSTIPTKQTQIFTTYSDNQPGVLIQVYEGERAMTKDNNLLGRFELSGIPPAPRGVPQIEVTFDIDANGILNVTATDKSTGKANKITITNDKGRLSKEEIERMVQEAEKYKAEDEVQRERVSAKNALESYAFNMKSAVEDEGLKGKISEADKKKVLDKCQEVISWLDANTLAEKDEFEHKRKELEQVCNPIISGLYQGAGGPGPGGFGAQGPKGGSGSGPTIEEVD

Structure (SMILES): O=C(Nc1ccc2nc(-c3ccco3)c(-c3ccco3)nc2c1)NC1CC1
- IC50 [1]: > 100 µM (not active)
- EC50 [2]: > 120 µM (not active)
- IC50 (Large T antigen): 39.6 µM (active)
- EC50 [3]: 13.2 µM (active)
- IC50 [4]: 33.1 µM (inactive)
- IC50 [5]: 73.3 µM (active)
- IC50 [6]: 2.92 µM (active)
- IC50 [7]: 1.34 µM (active)
- IC50 [8]: 75.5 µM (active)
- EC50 (H4): > 120 µM (not active)
- IC50 (Troponin, cardiac muscle): 47.5 µM (inactive)

Structure (SMILES): CNC(CC(=O)c1ccc([N+](=O)[O-])cc1)C(Cl)(Cl)Cl (configuration not stated)
- IC50 (Beta-galactosidase): > 66.6 µM (inactive)
- AC50 [9]: 2.3 µM (active)
- CC50 [10]: > 40 µM (active)

Structure (SMILES): Nc1c(C(=O)NCc2cccnc2)sc(=S)n1-c1ccccc1
- IC50 (Coagulation factor XII): > 50 µM (inactive)
- IC50 [11]: 78 µM (active)
- IC50 [4]: > 64 µM (inactive)
- IC50 [12]: > 100 µM (inactive)

Structure (SMILES): NS(=O)(=O)c1ccc(N=Nc2cnc(O)c(O)c2)cc1
- AC50 (Caspase-6): 3.44 µM (active)
- AC50 [13]: 22.8 µM (active)
- EC50 [14]: 5.41 µM (active)
- AC50 [15]: 135 µM (active)
- IC50 (Large T antigen): 27.5 µM (active)
- AC50 (HeLa): 43.8 µM (active)
- AC50 (Keap1/Nrf2): 17.1 µM (active)
- AC50 (ORF 73): 19.5 µM (active)
- EC50 [16]: 0.421 µM (active)

Structure (SMILES): COc1ccc(C(=O)N/N=C\c2ccc(OCC(=O)Nc3ccc(C)c(C)c3)c(OC)c2)cc1
- IC50 [17]: > 100 µM (inactive)
- IC50 [18]: > 100 µM (inactive)

Structure (SMILES): COc1ccc(CCN(C)C(=O)C2CCCN(Cc3ccccc3Cl)C2)cc1OC (configuration not stated)
- AC50 (Trypanosoma cruzi): 13.7 µM (active)
- AC50 [19]: 46.8 µM (active)

Structure (SMILES): O=C(NCc1ccc(Cl)cc1Cl)Nc1ccc(F)nc1
- EC50 [20]: 6.31 µM (active)
